Conditions: Liquid, Capillary tube (Ostwald / Ubbelohde) method

CCC(C)CC(C)(C)C (stereo unspecified) [2,2,4-trimethylhexane]
293.15 K
Conditions	viscosity [mPa·s]
100 kPa	0.64
25000 kPa	0.844
50000 kPa	1.101
100000 kPa	1.71
150000 kPa	2.54
250000 kPa	5.31
350000 kPa	10.67
400000 kPa	15
500000 kPa	30.9
600000 kPa	62.9
700000 kPa	126.9
800000 kPa	264
900000 kPa	558
1000000 kPa	1187

CC(C)CC(C)(C)C [2,2,4-trimethylpentane]
298.15 K
Conditions	viscosity [mPa·s]
100 kPa	0.48
26000 kPa	0.641
50000 kPa	0.809
100000 kPa	1.207
200000 kPa	2.35
312000 kPa	4.41
407000 kPa	7.7
499000 kPa	12.63
600000 kPa	21.3
700000 kPa	36.4
800000 kPa	61.5
900000 kPa	104.8
